From US7601336B2, “Pharmaceutical aerosol composition” (Chiesi Farmaceutici S.p.A., priority 1997, dated 2009)
Like-named read-outs stand apart in the source and are kept apart here. Values belong to the compound of their own block, whether it stands above or below them.

What was measured:
[1] = Aerodynamic particle size distribution by Andersen Cascade Impactor (ACI), ten cumulative actuations, drug on plates by HPLC; type: physicochemical
Experimental: The aerosol compositions of the invention described below were prepared by the following method. The required components of a composition were added into a can in the following order: drug, non-volatile additive, absolute ethanol. After crimping of the valve on to the can, the propellant was added through the valve. The weight gain of the can after each component was added was recorded to allow the percentage, by weight, of each component in the formulation to be calculated. The aerodynamic particle size distribution of each formulation was characterized using a Multistage Cascade Impactor according to the procedure described in the European Pharmacopoeia 2nd edition, 1995, part V.5.9.1. pages 15-17. In this specific case an Andersen Cascade Impactor (ACI) was used. Results represented were obtained from ten cumulative actuations or a formulation. Deposition of the drug on each ACI plate was determined by high pressure liquid chromatography. The mass median aerodynamic diameter (MMAD) and geometric standard deviation (GSD) were calculated from plots of the cumulative percentage undersize of drug collected on each ACI plate (probit scale), against the upper cut off diameter for each respective ACI plate (log10 scale). The fine particle dose of each formulation was determined from the mass of drug collected on Stages 2 through to Filter (<5.8 μm) divided by the number of actuations per experiment.

[2] = BDP as a solution in HFA 134a (formulations of EP 0553298), reported in literature; cited from earlier work
[3] = BDP 10 mg/10 ml, ethanol 7.9%, HFA 134a, actuator orifice 0.25 mm
[4] = BDP 10 mg/10 ml, ethanol 12.9-13.0%, HFA 134a, actuator orifice 0.25 mm
[5] = BDP 10 mg/10 ml, ethanol 12.9 ± 0.1% (w/w), HFA 134a, propylene glycol 0.0% (w/w), actuator orifice 0.42 mm
[6] = BDP 10 mg/10 ml, ethanol 12.9 ± 0.1% (w/w), HFA 134a, propylene glycol 1.1% (w/w), actuator orifice 0.42 mm
[7] = BDP 10 mg/10 ml, ethanol 12.9 ± 0.1% (w/w), HFA 134a, propylene glycol 3.2% (w/w), actuator orifice 0.42 mm
[8] = BDP 10 mg/10 ml, ethanol 12.9 ± 0.1% (w/w), HFA 134a, propylene glycol 6.8% (w/w), actuator orifice 0.42 mm
[9] = BDP 10 mg/10 ml, ethanol 13.6%, H2O 0.5%, HFA 134a, actuator orifice 0.33 mm
[10] = BDP 10 mg/10 ml, ethanol 13.7%, H2O 0.1%, HFA 134a, actuator orifice 0.33 mm
[11] = BDP 20 mg/10 ml, ethanol 7.9%, HFA 134a, actuator orifice 0.25 mm
[12] = BDP 20 mg/10 ml, ethanol 13.0%, HFA 134a, actuator orifice 0.25 mm
[13] = BDP 50 mg/10 ml, ethanol 14.9%, H2O 0.1%, HFA 134a, actuator orifice 0.33 mm
[14] = BDP 50 mg/10 ml, ethanol 14.9%, H2O 0.5%, HFA 134a, actuator orifice 0.33 mm
[15] = BDP 50 mg/10 ml, ethanol 14.9 ± 0.1% (w/w), HFA 134a, PEG 0.0% (w/w), actuator orifice 0.33 mm
[16] = BDP 50 mg/10 ml, ethanol 14.9 ± 0.1% (w/w), HFA 134a, PEG 400 1.1% (w/w), actuator orifice 0.33 mm
[17] = BDP 50 mg/10 ml, ethanol 14.9 ± 0.1% (w/w), HFA 134a, PEG 8000 1.0% (w/w), actuator orifice 0.33 mm
[18] = BDP 50 mg/10 ml, ethanol 15.0 ± 0.2% (w/w), HFA 134a, glycerol 0.0% (w/w), actuator orifice 0.25 mm
[19] = BDP 50 mg/10 ml, ethanol 15.0 ± 0.2% (w/w), HFA 134a, glycerol 0.0% (w/w), actuator orifice 0.33 mm
[20] = BDP 50 mg/10 ml, ethanol 15.0 ± 0.2% (w/w), HFA 134a, glycerol 1.0% (w/w), actuator orifice 0.25 mm
[21] = BDP 50 mg/10 ml, ethanol 15.0 ± 0.2% (w/w), HFA 134a, glycerol 1.0% (w/w), actuator orifice 0.33 mm
[22] = BDP 50 mg/10 ml, ethanol 15.0 ± 0.2% (w/w), HFA 134a, glycerol 1.3% (w/w), actuator orifice 0.25 mm
[23] = BDP 50 mg/10 ml, ethanol 15.0 ± 0.2% (w/w), HFA 134a, glycerol 1.3% (w/w), actuator orifice 0.33 mm
[24] = BDP 50 mg/10 ml, ethanol 15.0 ± 0.2% (w/w), HFA 134a, glycerol 1.6% (w/w), actuator orifice 0.25 mm
[25] = BDP 50 mg/10 ml, ethanol 15.0 ± 0.2% (w/w), HFA 134a, glycerol 1.6% (w/w), actuator orifice 0.33 mm
[26] = BDP 50 mg/10 ml, ethanol 15.0 ± 0.2% (w/w), HFA 227 fill to 12 ml, 0% (w/w) glycerol, actuator orifice 0.33 mm
[27] = BDP 50 mg/10 ml, ethanol 15.0 ± 0.2% (w/w), HFA 227 fill to 12 ml, 1.42% (w/w) glycerol, actuator orifice 0.33 mm
[28] = BDP 50 mg/10 ml, ethanol 15.2 ± 0.4% (w/w), HFA 134a, propylene glycol 0.0% (w/w), actuator orifice 0.42 mm
[29] = BDP 50 mg/10 ml, ethanol 15.2 ± 0.4% (w/w), HFA 134a, propylene glycol 0.7% (w/w), actuator orifice 0.42 mm
[30] = BDP 50 mg/10 ml, ethanol 15.2 ± 0.4% (w/w), HFA 134a, propylene glycol 2.8% (w/w), actuator orifice 0.42 mm
[31] = BDP 50 mg/10 ml, ethanol 15.2 ± 0.4% (w/w), HFA 134a, propylene glycol 6.3% (w/w), actuator orifice 0.42 mm
[32] = combination BDP 50 mg/10 ml + Salbutamol base 20 mg/10 ml, ethanol 15.4 ± 0.2% (w/w), HFA 134a, glycerol 0%, oleic acid 0%, actuator exit orifice 0.33 mm
[33] = combination BDP 50 mg/10 ml + Salbutamol base 20 mg/10 ml, ethanol 15.4 ± 0.2% (w/w), HFA 134a, glycerol 0%, oleic acid 0.3%, actuator exit orifice 0.33 mm
[34] = combination BDP 50 mg/10 ml + Salbutamol base 20 mg/10 ml, ethanol 15.4 ± 0.2% (w/w), HFA 134a, glycerol 0%, oleic acid 1.3%, actuator exit orifice 0.30 mm
[35] = combination BDP 50 mg/10 ml + Salbutamol base 20 mg/10 ml, ethanol 15.4 ± 0.2% (w/w), HFA 134a, glycerol 1.2%, oleic acid 0.3%, actuator exit orifice 0.30 mm
[36] = Flunisolide 50 mg/10 ml, ethanol 15.0 ± 0.1%, HFA 134a, menthol 0% (w/w), glycerol 0% (w/w), actuator orifice 0.30 mm
[37] = Flunisolide 50 mg/10 ml, ethanol 15.0 ± 0.1%, HFA 134a, menthol 0.4% (w/w), glycerol 0.9% (w/w), actuator orifice 0.30 mm
[38] = Salbutamol base 20 mg/10 ml, ethanol 15% (w/w), HFA 134a, glycerol 0% (w/w), oleic acid 0.35% (w/w), actuator orifice 0.30 mm
[39] = Salbutamol base 20 mg/10 ml, ethanol 15% (w/w), HFA 134a, glycerol 1.3% (w/w), oleic acid 0.36% (w/w), actuator orifice 0.30 mm

Fine particle dose [1, 3]: 31.1 µg
MMAD ± GSD [1, 3]: 0.8 ± 1.8
Mean emitted dose [1, 3]: 44.7 µg
Fine particle dose [1, 4]: 24.5 µg
MMAD ± GSD [1, 4]: 0.9 ± 2.0
Mean emitted dose [1, 4]: 45.1 µg
Fine particle dose [1, 5]: 10.3 µg
MMAD ± GSD [1, 5]: 1.1 ± 2.3 μm
Mean emitted dose [1, 5]: 41.8 µg
Fine particle dose [1, 6]: 9.3 µg
MMAD ± GSD [1, 6]: 1.6 ± 3.4 μm
Mean emitted dose [1, 6]: 44.0 µg
Fine particle dose [1, 7]: 7.3 µg
MMAD ± GSD [1, 7]: 2.9 ± 4.1 μm
Mean emitted dose [1, 7]: 43.6 µg
Fine particle dose [1, 8]: 4.9 µg
MMAD ± GSD [1, 8]: 4.6 ± 3.9 μm
Mean emitted dose [1, 8]: 44.9 µg
Fine particle dose [1, 9]: 12.7 µg
MMAD ± GSD [1, 9]: 1.0 ± 2.1 μm
Mean emitted dose [1, 9]: 42.9 µg
Fine particle dose [1, 10]: 14.9 µg
MMAD ± GSD [1, 10]: 1.0 ± 2.2 μm
Mean emitted dose [1, 10]: 43.2 µg
Fine particle dose [1, 11]: 63.1 µg
MMAD ± GSD [1, 11]: 1.0 ± 1.8
Mean emitted dose [1, 11]: 84.8 µg
Fine particle dose [1, 12]: 46.2 µg
MMAD ± GSD [1, 12]: 1.0 ± 1.9
Mean emitted dose [1, 12]: 87.6 µg
Fine particle dose [1, 13]: 67.4 µg
MMAD ± GSD [1, 13]: 1.8 ± 2.2 μm
Mean emitted dose [1, 13]: 222.1 µg
Fine particle dose [1, 14]: 60.2 µg
MMAD ± GSD [1, 14]: 1.7 ± 2.2 μm
Mean emitted dose [1, 14]: 215.1 µg
Fine particle dose [1, 15]: 67.4 µg
MMAD ± GSD [1, 15]: 1.8 ± 2.2 μm
Mean emitted dose [1, 15]: 222.1 µg
Fine particle dose [1, 16]: 55.6 µg
MMAD ± GSD [1, 16]: 2.5 ± 2.2 μm
Mean emitted dose [1, 16]: 218.9 µg
Fine particle dose [1, 17]: 55.6 µg
MMAD ± GSD [1, 17]: 2.5 ± 2.2 μm
Mean emitted dose [1, 17]: 215.0 µg
Fine particle dose [1, 18]: 105.9 µg
MMAD ± GSD [1, 18]: 1.4 ± 1.9 μm
Mean emitted dose [1, 18]: 205.8 µg
Fine particle dose [1, 19]: 67.4 µg
MMAD ± GSD [1, 19]: 1.8 ± 2.2 μm
Mean emitted dose [1, 19]: 222.1 µg
Fine particle dose [1, 20]: 94.4 µg
MMAD ± GSD [1, 20]: 2.4 ± 2.0 μm
Mean emitted dose [1, 20]: 218.3 µg
Fine particle dose [1, 21]: 55.9 µg
MMAD ± GSD [1, 21]: 2.8 ± 2.2 μm
Mean emitted dose [1, 21]: 227.9 µg
Fine particle dose [1, 22]: 100.3 µg
MMAD ± GSD [1, 22]: 2.6 ± 2.0 μm
Mean emitted dose [1, 22]: 220.8 µg
Fine particle dose [1, 23]: 54.3 µg
MMAD ± GSD [1, 23]: 3.1 ± 2.3 μm
Mean emitted dose [1, 23]: 228.4 µg
Fine particle dose [1, 24]: 96.6 µg
MMAD ± GSD [1, 24]: 2.7 ± 2.0 μm
Mean emitted dose [1, 24]: 228.0 µg
Fine particle dose [1, 25]: 50.9 µg
MMAD ± GSD [1, 25]: 3.1 ± 2.3 μm
Mean emitted dose [1, 25]: 231.7 µg
FPD [1, 26]: 62.1 µg
GSD [1, 26]: 2.6
MMAD [1, 26]: 2.2 μm
Mean emitted dose [1, 26]: 221.25 µg
FPD [1, 27]: 43.5 µg
GSD [1, 27]: 2.4
MMAD [1, 27]: 4.1 μm
Mean emitted dose [1, 27]: 230.5 µg
Fine particle dose [1, 28]: 41.6 µg
MMAD ± GSD [1, 28]: 1.7 ± 2.3 μm
Mean emitted dose [1, 28]: 209.1 µg
Fine particle dose [1, 29]: 41.1 µg
MMAD ± GSD [1, 29]: 2.1 ± 2.7 μm
Mean emitted dose [1, 29]: 218.4 µg
Fine particle dose [1, 30]: 32.1 µg
MMAD ± GSD [1, 30]: 3.3 ± 3.2 μm
Mean emitted dose [1, 30]: 204.2 µg
Fine particle dose [1, 31]: 25.2 µg
MMAD ± GSD [1, 31]: 4.4 ± 3.8 μm
Mean emitted dose [1, 31]: 242.6 µg
Emitted dose [1, 32]: 208.9 µg
FPD [1, 32]: 67.8 µg
GSD [1, 32]: 2.4
MMAD [1, 32]: 1.7 μm
Emitted dose [1, 33]: 212.7 µg
FPD [1, 33]: 60.6 µg
GSD [1, 33]: 2.3
MMAD [1, 33]: 2.2 μm
Emitted dose [1, 34]: 212.5 µg
FPD [1, 34]: 58.5 µg
GSD [1, 34]: 2.2
MMAD [1, 34]: 2.4 μm
Emitted dose [1, 35]: 210.8 µg
FPD [1, 35]: 63.3 µg
GSD [1, 35]: 2.1
MMAD [1, 35]: 2.9 μm
Compound: CCC(=O)OCC(=O)[C@@]1(OC(=O)CC)[C@@H](C)C[C@H]2[C@@H]3CCC4=CC(=O)C=C[C@]4(C)[C@@]3(Cl)[C@@H](O)C[C@@]21C [BDP, beclomethasone dipropionate]
MMAD [2]: 1.1 μm

Emitted dose [1, 36]: 217.1 µg
Fine Particle Dose (FPD) [1, 36]: 76.85 µg
GSD [1, 36]: 2.15
MMAD [1, 36]: 1.8 µm
Emitted dose [1, 37]: 221.6 µg
Fine Particle Dose (FPD) [1, 37]: 77.84 µg
GSD [1, 37]: 2.1
MMAD [1, 37]: 2.9 µm
Compound: CC1(C)O[C@@H]2C[C@H]3[C@@H]4C[C@H](F)C5=CC(=O)C=C[C@]5(C)[C@H]4[C@@H](O)C[C@]3(C)[C@]2(C(=O)CO)O1 [Flunisolide]

Emitted dose [1, 38]: 85.8 µg
FPD [1, 38]: 29.1 µg
GSD [1, 38]: 2.3
MMAD [1, 38]: 1.7 μm
Emitted dose [1, 39]: 92.0 µg
FPD [1, 39]: 25.2 µg
GSD [1, 39]: 2.4
MMAD [1, 39]: 2.8 μm
Emitted dose [1, 32]: 82.5 µg
FPD [1, 32]: 26.9 µg
GSD [1, 32]: 2.2
MMAD [1, 32]: 1.7 μm
Emitted dose [1, 33]: 84.8 µg
FPD [1, 33]: 24.0 µg
GSD [1, 33]: 2.6
MMAD [1, 33]: 2.0 μm
Emitted dose [1, 34]: 85.9 µg
FPD [1, 34]: 23.9 µg
GSD [1, 34]: 2.1
MMAD [1, 34]: 2.4 μm
Emitted dose [1, 35]: 85.3 µg
FPD [1, 35]: 25.1 µg
GSD [1, 35]: 2.0
MMAD [1, 35]: 3.0 μm
Compound: CC(C)(C)NCC(O)c1ccc(O)c(CO)c1 (stereo not drawn) [Salbutamol base]
